Consider 25 compounds from ChEMBL document CHEMBL3763052, “Novel N-acyl-carbazole derivatives as 5-HT7R antagonists” (Eur J Med Chem, 2016).

Assay [1] has as its target T1, 5-hydroxytryptamine receptor 7 (Homo sapiens, UniProt P34969). The assay is described as follows: Displacement of [3H]LSD from 5-HT7 receptor (unknown origin) expressed in CHO-K1 cells by liquid scintillation counting method. Type of assay: cell-based.
Assay [2] concerns the target T1, 5-hydroxytryptamine receptor 7. Kind of assay: Displacement of [3H]LSD from 5-HT7 receptor (unknown origin) expressed in CHO-K1 cells at 10 uM by liquid scintillation counting method. Type of assay: cell-based. Background: Displacement assays read how much labelled ligand stays bound in the presence of the test substance.
Assay [3] shares this target. The assay is described as follows: Binding affinity to recombinant 5-HT7 receptor (unknown origin) after 1.5 hrs by radioligand displacement assay.
Assay [4] concerns the target T2, 5-hydroxytryptamine receptor 1A (Homo sapiens, UniProt P08908).
T2 sequence (P08908 whole entry): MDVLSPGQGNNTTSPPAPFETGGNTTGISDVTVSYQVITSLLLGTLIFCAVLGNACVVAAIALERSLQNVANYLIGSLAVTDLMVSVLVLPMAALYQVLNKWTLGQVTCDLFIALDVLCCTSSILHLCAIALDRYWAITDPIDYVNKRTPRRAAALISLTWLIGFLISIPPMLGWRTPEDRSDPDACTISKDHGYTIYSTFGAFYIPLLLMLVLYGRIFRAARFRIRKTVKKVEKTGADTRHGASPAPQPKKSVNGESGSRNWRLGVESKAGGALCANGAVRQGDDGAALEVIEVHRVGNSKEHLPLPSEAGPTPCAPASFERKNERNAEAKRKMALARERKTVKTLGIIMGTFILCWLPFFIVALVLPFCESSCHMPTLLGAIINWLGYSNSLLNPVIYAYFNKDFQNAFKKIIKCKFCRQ
The assay is described as follows: Binding affinity to recombinant 5-HT1A receptor (unknown origin) after 1.5 hrs by radioligand displacement assay.

The species entered for assay [5] is Homo sapiens. Kind of assay: Selectivity index, ratio of Ki for recombinant 5-HT1A receptor (unknown origin) to Ki for recombinant 5-HT7 receptor (unknown origin).
For assay [6], the target named is T3, 5-hydroxytryptamine receptor 1B (Homo sapiens, UniProt P28222). Kind of assay: Binding affinity to recombinant 5-HT1B receptor (unknown origin) after 1.5 hrs by radioligand displacement assay.
T3 sequence (P28222 whole entry): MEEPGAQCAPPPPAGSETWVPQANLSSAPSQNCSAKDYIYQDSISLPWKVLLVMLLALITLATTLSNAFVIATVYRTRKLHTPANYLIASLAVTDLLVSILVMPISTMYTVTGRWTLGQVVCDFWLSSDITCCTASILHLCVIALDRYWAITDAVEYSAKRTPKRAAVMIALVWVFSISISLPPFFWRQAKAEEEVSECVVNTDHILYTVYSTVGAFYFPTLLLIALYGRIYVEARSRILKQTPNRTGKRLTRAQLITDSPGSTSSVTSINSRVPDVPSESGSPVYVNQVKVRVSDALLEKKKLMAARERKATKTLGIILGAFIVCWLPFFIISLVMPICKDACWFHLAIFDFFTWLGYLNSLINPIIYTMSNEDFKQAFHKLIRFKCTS
Assay [7] concerns the target 5-hydroxytryptamine receptor 1D (Homo sapiens, UniProt P28221). The assay is described as follows: Binding affinity to recombinant 5-HT1D receptor (unknown origin) after 1.5 hrs by radioligand displacement assay.
The species entered for assay [8] is Homo sapiens. The assay is described as follows: Selectivity index, ratio of Ki for recombinant 5-HT1D receptor (unknown origin) to Ki for recombinant 5-HT7 receptor (unknown origin).
The target in assay [9] is T4, 5-hydroxytryptamine receptor 2A (Homo sapiens, UniProt P28223). Kind of assay: Binding affinity to recombinant 5-HT2A receptor (unknown origin) after 1.5 hrs by radioligand displacement assay.
T4 sequence (P28223 whole entry): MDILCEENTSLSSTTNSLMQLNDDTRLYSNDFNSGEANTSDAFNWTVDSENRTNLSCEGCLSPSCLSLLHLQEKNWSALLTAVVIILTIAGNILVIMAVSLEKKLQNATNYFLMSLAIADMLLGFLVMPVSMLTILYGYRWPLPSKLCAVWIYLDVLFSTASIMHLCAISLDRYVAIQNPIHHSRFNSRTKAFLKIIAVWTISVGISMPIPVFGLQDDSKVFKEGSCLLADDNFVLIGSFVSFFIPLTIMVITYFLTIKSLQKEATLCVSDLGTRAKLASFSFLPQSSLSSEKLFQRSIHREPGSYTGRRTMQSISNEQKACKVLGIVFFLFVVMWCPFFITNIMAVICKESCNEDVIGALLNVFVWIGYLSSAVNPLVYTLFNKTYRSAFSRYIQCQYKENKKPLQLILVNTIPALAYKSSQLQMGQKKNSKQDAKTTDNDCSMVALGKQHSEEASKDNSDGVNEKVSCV
For assay [10], the target named is 5-hydroxytryptamine receptor 2B (Homo sapiens, UniProt P41595). Kind of assay: Binding affinity to recombinant 5-HT2B receptor (unknown origin) after 1.5 hrs by radioligand displacement assay.
Sequence of 5-hydroxytryptamine receptor 2B (P41595 whole entry): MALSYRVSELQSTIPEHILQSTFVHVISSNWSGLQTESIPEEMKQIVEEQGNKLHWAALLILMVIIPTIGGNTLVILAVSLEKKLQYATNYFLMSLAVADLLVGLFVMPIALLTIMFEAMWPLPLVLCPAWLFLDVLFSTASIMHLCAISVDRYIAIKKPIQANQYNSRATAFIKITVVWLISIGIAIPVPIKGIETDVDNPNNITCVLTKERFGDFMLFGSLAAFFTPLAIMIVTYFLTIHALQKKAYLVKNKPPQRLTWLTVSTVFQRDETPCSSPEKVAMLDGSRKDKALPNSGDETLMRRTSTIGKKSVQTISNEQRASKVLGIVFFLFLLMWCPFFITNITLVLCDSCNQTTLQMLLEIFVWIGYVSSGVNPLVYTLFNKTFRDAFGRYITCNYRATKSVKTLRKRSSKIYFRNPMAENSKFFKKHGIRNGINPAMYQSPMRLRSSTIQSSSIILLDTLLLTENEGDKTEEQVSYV
The species named for assay [11] is Homo sapiens. Kind of assay: Selectivity index, ratio of Ki for recombinant 5-HT2B receptor (unknown origin) to Ki for recombinant 5-HT7 receptor (unknown origin).
The target of assay [12] is T5, 5-hydroxytryptamine receptor 2C (Homo sapiens, UniProt P28335).
T5 sequence (P28335 whole entry): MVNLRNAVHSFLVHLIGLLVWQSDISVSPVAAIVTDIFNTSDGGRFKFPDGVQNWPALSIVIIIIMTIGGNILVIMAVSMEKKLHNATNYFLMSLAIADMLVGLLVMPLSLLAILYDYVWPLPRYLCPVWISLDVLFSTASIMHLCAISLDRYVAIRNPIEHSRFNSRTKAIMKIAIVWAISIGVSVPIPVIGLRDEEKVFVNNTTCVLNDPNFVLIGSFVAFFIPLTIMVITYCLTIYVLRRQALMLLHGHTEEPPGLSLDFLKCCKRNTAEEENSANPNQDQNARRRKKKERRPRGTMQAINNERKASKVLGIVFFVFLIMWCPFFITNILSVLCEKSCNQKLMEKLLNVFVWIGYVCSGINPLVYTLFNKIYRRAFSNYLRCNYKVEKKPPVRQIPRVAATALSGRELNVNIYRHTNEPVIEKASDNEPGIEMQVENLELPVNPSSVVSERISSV
Kind of assay: Binding affinity to recombinant 5-HT2C receptor (unknown origin) after 1.5 hrs by radioligand displacement assay.

The species named for assay [13] is Homo sapiens. The assay is described as follows: Selectivity index, ratio of Ki for recombinant 5-HT2C receptor (unknown origin) to Ki for recombinant 5-HT7 receptor (unknown origin).
Assay [14] concerns the target T6, 5-hydroxytryptamine receptor 3A (Homo sapiens) (UniProt P46098).
T6 sequence (whole entry): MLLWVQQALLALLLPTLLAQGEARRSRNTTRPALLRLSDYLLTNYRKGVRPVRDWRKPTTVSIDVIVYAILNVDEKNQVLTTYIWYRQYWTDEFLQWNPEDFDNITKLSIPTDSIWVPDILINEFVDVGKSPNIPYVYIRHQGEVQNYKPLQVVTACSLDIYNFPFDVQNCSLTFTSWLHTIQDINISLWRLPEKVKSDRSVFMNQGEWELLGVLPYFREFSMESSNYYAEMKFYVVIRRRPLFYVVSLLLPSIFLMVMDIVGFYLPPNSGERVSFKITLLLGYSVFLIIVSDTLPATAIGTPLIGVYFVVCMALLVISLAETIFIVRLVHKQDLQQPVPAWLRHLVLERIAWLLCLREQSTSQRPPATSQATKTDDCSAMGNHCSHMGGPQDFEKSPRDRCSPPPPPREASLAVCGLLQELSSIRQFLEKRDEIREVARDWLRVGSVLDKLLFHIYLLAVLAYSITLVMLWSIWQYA
Kind of assay: Binding affinity to recombinant 5-HT3 receptor (unknown origin) at 10 uM after 1.5 hrs by radioligand displacement assay.

For assay [15], the target named is 5-hydroxytryptamine receptor 5A (Homo sapiens, UniProt P47898). Kind of assay: Binding affinity to recombinant 5-HT5 receptor (unknown origin) after 1.5 hrs by radioligand displacement assay.
Sequence of 5-hydroxytryptamine receptor 5A (P47898 whole entry): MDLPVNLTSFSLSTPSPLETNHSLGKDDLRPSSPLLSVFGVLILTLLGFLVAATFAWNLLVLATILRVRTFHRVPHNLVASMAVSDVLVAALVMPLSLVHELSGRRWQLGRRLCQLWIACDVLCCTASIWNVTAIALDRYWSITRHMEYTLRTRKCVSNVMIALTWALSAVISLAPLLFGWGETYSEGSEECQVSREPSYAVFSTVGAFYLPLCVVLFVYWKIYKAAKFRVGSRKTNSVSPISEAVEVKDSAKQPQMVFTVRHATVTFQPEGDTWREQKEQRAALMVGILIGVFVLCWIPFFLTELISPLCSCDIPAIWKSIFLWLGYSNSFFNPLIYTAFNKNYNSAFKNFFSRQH
The species entered for assay [16] is Homo sapiens. The assay is described as follows: Selectivity index, ratio of Ki for recombinant 5-HT5 receptor (unknown origin) to Ki for recombinant 5-HT7 receptor (unknown origin).
The target of assay [17] is T7, 5-hydroxytryptamine receptor 6 (Homo sapiens, UniProt P50406). Kind of assay: Binding affinity to recombinant 5-HT6 receptor (unknown origin) at 10 uM after 1.5 hrs by radioligand displacement assay.
T7 sequence (P50406 whole entry): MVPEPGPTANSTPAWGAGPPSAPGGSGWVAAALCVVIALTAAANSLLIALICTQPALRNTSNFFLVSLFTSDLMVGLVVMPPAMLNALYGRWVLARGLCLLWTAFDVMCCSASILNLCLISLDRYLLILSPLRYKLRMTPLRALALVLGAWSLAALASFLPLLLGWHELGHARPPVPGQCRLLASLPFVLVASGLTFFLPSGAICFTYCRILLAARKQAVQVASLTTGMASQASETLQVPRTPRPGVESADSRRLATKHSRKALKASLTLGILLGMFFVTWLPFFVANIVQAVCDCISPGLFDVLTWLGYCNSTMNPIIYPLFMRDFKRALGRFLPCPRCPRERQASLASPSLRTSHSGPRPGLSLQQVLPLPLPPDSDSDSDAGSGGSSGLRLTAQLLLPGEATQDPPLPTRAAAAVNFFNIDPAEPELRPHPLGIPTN
For a further assay, the system named is Mus musculus. The assay is described as follows: Antidepressant activity in ICR mouse assessed as immobility time at 50 mg/kg, iv administered 30 mins before testing by forced swim test (reference value: 159.1 sec). Type of assay: functional.
The target of assay [18] is T3, 5-hydroxytryptamine receptor 1B. The assay is described as follows: Binding affinity to recombinant 5-HT1B receptor (unknown origin) at 10 uM after 1.5 hrs by radioligand displacement assay.
Assay [19] has as its target T4, 5-hydroxytryptamine receptor 2A. Kind of assay: Binding affinity to recombinant 5-HT2A receptor (unknown origin) at 10 uM after 1.5 hrs by radioligand displacement assay.
Assay [20] has as its target T7, 5-hydroxytryptamine receptor 6. Kind of assay: Binding affinity to recombinant 5-HT6 receptor (unknown origin) after 1.5 hrs by radioligand displacement assay.
Assay [21] is filed under the species Homo sapiens. The assay is described as follows: Selectivity index, ratio of Ki for recombinant 5-HT6 receptor (unknown origin) to Ki for recombinant 5-HT7 receptor (unknown origin).

Sequence of 5-hydroxytryptamine receptor 1D (P28221 whole entry): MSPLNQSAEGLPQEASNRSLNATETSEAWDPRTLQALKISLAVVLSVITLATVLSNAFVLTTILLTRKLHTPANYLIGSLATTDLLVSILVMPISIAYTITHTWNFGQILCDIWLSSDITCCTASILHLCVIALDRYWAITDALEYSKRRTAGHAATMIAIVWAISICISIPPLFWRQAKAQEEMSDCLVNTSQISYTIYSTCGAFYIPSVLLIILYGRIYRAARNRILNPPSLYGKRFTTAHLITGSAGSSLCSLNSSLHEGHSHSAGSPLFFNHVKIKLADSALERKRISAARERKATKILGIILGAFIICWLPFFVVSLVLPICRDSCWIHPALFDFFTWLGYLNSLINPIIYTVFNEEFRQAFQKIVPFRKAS
T1 sequence (P34969 whole entry): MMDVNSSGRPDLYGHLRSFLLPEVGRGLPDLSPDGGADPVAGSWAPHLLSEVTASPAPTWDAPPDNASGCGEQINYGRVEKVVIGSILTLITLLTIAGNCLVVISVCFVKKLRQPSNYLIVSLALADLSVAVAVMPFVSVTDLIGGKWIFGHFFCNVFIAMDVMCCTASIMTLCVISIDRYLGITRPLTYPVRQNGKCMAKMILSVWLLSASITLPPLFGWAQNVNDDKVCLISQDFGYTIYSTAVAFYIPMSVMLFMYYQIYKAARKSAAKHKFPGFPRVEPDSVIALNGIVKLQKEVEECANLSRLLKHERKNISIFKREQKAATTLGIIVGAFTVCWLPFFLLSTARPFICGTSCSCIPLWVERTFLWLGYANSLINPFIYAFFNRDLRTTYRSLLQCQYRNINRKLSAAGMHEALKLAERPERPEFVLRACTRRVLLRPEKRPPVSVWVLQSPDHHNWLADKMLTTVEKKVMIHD

The Ki is a dissociation constant, usually derived from enzyme kinetics or from competition with a known ligand. Compound `CC1CC(C)CN(CCCCC(=O)n2c3ccccc3c3ccccc32)C1` (stereo unspecified) showed a Ki in assay [1] of 1.4 µM.
Still for that read-out and setting: for `O=C(CCCCN1CCC(Cc2ccccc2)CC1)n1c2ccccc2c2ccccc21` the value was 0.312 µM; for `CN1CCN(CCCCCC(=O)n2c3ccccc3c3ccccc32)CC1`, 1.91 µM; for `O=C(CCCCN1CCCCCC1)n1c2ccccc2c2ccccc21`, 0.949 µM.
One may read the inhibition as the percentage by which the read-out fell short of the control. For the compound `CN1CCN(CCCCC(=O)n2c3ccccc3c3ccccc32)CC1`, the inhibition in assay [2] came out at 40%.
For the compound `COc1ccccc1N1CCN(CCCCC(=O)n2c3ccccc3c3ccccc32)CC1`, the Ki is 0.03 µM in assay [1]; 0.03 µM in [3]; 0.122 µM in assay [4]; 3.74 µM in [6]; 0.462 µM in assay [7]; 0.451 µM in [9]. Further, the Ki in [10] stood at 0.093 µM; in assay [12], 1.17 µM; in [15], 0.005 µM. For the same compound, the Ratio Ki in the assay listed under Homo sapiens [5] stood at 4.1; in the assay filed under Homo sapiens [8], 15; in the assay filed under Homo sapiens [11], 3.1; in the assay listed under Homo sapiens [13], 39; in the assay listed under Homo sapiens [16], 0.17. In addition, the inhibition in [14] came out at 24%; in [17], 44%.
Compound `CCCCN(C)CCCCC(=O)n1c2ccccc2c2ccccc21` had a Ki in assay [1] of 1.28 µM.
In the case of `CNCCC(Oc1ccc(C(F)(F)F)cc1)c1ccccc1` (stereo unspecified) [FLUOXETINE], the Time in the assay on Mus musculus was determined as 83.9 s.
For the compound `O=C(CCCCCN1CCC(Cc2ccccc2)CC1)n1c2ccccc2c2ccccc21`, the Ki in assay [1] worked out at 0.252 µM.
Same read-out and setting: the result for `O=C(CCCCCN1CCCC1)n1c2ccccc2c2ccccc21` reads 1.05 µM; that for `O=C(CCCCCN1CCCCCC1)n1c2ccccc2c2ccccc21`, 0.616 µM; that for `O=C(CCCCN1CCC(c2ccccc2)CC1)n1c2ccccc2c2ccccc21`, 0.153 µM.
Still for that read-out and setting: the result for `CC1CCN(CCCCC(=O)n2c3ccccc3c3ccccc32)CC1` reads 0.592 µM; that for `CC(=O)N1CCN(CCCCCC(=O)n2c3ccccc3c3ccccc32)CC1`, 2.34 µM.
Same read-out and setting: for `O=C(CCCCCN1CCOCC1)n1c2ccccc2c2ccccc21` the value was 1.31 µM; for `CC1CC(C)CN(CCCCCC(=O)n2c3ccccc3c3ccccc32)C1` (stereo unspecified), 0.833 µM.
As to `CC1CCCN(CCCCCC(=O)n2c3ccccc3c3ccccc32)C1` (stereo unspecified), the Ki in assay [1] is 0.55 µM.
The same measure, in the same setting: for `CCCCN(C)CCCCCC(=O)n1c2ccccc2c2ccccc21` the value was 0.68 µM.
Turning to `O=C(CCCCCN1CCN(c2ccccc2O)CC1)n1c2ccccc2c2ccccc21`, the Ki in assay [1] was determined as 0.038 µM; in [3], 0.038 µM; in assay [4] it was 0.148 µM; in assay [7], 0.028 µM; in [10], 0.101 µM; in [12] it was 1.39 µM. In addition, the Ki in [15] turned out to be 0.933 µM; in assay [20], 0.595 µM. For the same compound, the Ratio Ki in the assay listed under Homo sapiens [5] came to 3.9; in the assay filed under Homo sapiens [8] it was 0.74; in the assay filed under Homo sapiens [11], 2.7; in the assay listed under Homo sapiens [13], 37; in the assay filed under Homo sapiens [16] it was 25; in the assay listed under Homo sapiens [21], 16. Besides, the inhibition in assay [18] came to 48%; in assay [19] it was 13%; in assay [14], 41%.
In the case of `CN(CCCCC(=O)n1c2ccccc2c2ccccc21)Cc1ccccc1`, the Ki in [1] was found to be 0.513 µM.
In turn, `O=C(CCCCCN1CCC(c2ccccc2)CC1)n1c2ccccc2c2ccccc21` yielded a Ki in [1] of 0.157 µM.
As for `O=C(CCCCN1CCCC1)n1c2ccccc2c2ccccc21`, affinity in assay [1] was put at a Ki of 2.16 µM.
Consider `O=C(CCCCN1CCN(c2ccccc2O)CC1)n1c2ccccc2c2ccccc21`, for which the Ki in [1] is 0.086 µM; in assay [4] it was 0.022 µM; in assay [7] it was 1.4 µM; in assay [9], 0.257 µM; in assay [10], 0.083 µM; in assay [12], 1.52 µM. Besides, the Ki in [15] is 0.337 µM; in [20], 0.879 µM. Besides, the Ratio Ki was 0.26 in the assay listed under Homo sapiens [5]; 16 in the assay listed under Homo sapiens [8]; 0.97 in the assay filed under Homo sapiens [11]; 18 in the assay listed under Homo sapiens [13]; 3.9 in the assay filed under Homo sapiens [16]; 10 in the assay listed under Homo sapiens [21]. The inhibition came to 37% in [18] and 41% in [14].
The compound `O=C(CCCCN1CCOCC1)n1c2ccccc2c2ccccc21` showed an inhibition in [2] of 47%.
On to `CC(=O)N1CCN(CCCCC(=O)n2c3ccccc3c3ccccc32)CC1`, for which the Ki in assay [1] is 1.07 µM.
